Data taken from patent EP0808832B1, “Fluorinated vitamin D3 analogs” (F. HOFFMANN-LA ROCHE AG, priority 1996, dated 1997).
Values joined by “and” are separate entries in the source; they are usually repeats but may differ in a detail not shown here. Equal values may be shown once. Read-outs that look alike come from different tables or passages of the source.

Columns and labels:
[1] = tested on: rats are ovariectomized (Ovx); format: in vivo, rat; conditions: for Whole Femur BMD: 3 to 6 weeks post-ovariectomy, right femur; for Urine Calcium/Creatinine 6th wk): 0.20 µg/kg once a day by mouth
Source text: Three month old rats are ovariectomized (Ovx) and administered either 1,25-dihydroxy vitamin D3 (vit. D in Table) or one of the compounds of the present invention once a day by mouth starting at 3 weeks post-ovariectomy and continuing until final sacrifice at 6 weeks post-ovariectomy. Control groups, both sham (rats that were not ovariectomized) and Ovx, received vehicle only. Blood and urine samples were collected twice, at 4 weeks post-ovariectomy and again at the 6 week mark and the amount of serum and urine calcium was determined. The final femoral calcium determined upon sacrifice 6 weeks post- ovariectomy.
The bone mineral density (BMD) of the right femur was determined by using a High Resolution Software Package on a QDR-1000W Bone Densitometer™ (Hologic, Walthan, MA). The animals were scanned by placing them on a scanning block in a supine position such that the right leg was perpendicular to the main body and the tibia was perpendicular to the femur.
The increase in the bone mineral density and the amount of calcium in the urine and the serum for some of the compounds of this invention in this assay are given in the table below: […]

[2] = tested on: women with postmenopausal osteoporosis; conditions: 0.25 microgram twice daily, after 3 years, mild to moderate disease, compared with elemental calcium 1000 mg/day; cited from earlier work

SMILES: C=C1/C(=C\C=C2/CCC[C@]3(C)[C@@H](C4(CC#CC(C)(C)O)CC4)CC[C@@H]23)C[C@@H](O)C[C@@H]1F [Cpd. 58, 1-α-Fluoro-25-hydroxy-23-yne-20,21,28-cyclopropylcholecalciferol]
- Whole Femur BMD ([1]; 5.00 µg/kg once a day by mouth): 0.236 g/cm^2

SMILES: C=C1/C(=C\C=C2/CCC[C@]3(C)[C@@H](C4(C/C=C/C(O)(C(F)(F)F)C(F)(F)F)CC4)CC[C@@H]23)C[C@@H](O)C[C@@H]1F [Cpd. 60, 1-α-Fluoro-25-hydroxy-23E-ene-26,27-hexafluoro-20,21,28-cyclopropyl-cholecalciferol]
- Whole Femur BMD ([1]; 0.10 µg/kg once a day by mouth): 0.242 g/cm^2

SMILES: C=C1/C(=C\C=C2/CCC[C@]3(C)C([C@@H](C)CC#CC4(O)CCCC4)=CC[C@@H]23)C[C@@H](O)C[C@@H]1F [Cpd. 59, 1-α-Fluoro-25-hydroxy-16-ene-23-yne-25,26,27-cyclopentyl-20-epi-cholecalciferol]
- Whole Femur BMD ([1]; 2.00 µg/kg once a day by mouth): 0.233 g/cm^2

SMILES: C=C1/C(=C\C=C2/CCC[C@]3(C)[C@@H]([C@H](C)CCCC(C)(C)O)CC[C@@H]23)C[C@@H](O)C[C@@H]1O [Vit D, 1,25-dihydroxy vitamin D3]
- lower rate of new vertebral fractures [2]: 3 fold
- Urine Calcium/Creatinine 6th wk) [1]: 1.35 mg/dL and 1.44 mg/dL
- Urine Calcium/Creatinine 6th wk) ([1]; listed as Vit. D): 0.76 mg/dL and 1.44 mg/dL and 1.48 mg/dL

SMILES: C=C1/C(=C\C=C2/CCC[C@]3(C)C([C@@H](C)C/C=C/C(C)(O)C(F)(F)F)=CC[C@@H]23)C[C@@H](O)C[C@@H]1F (stereo partly drawn) [Cpd. 57, 1-α-Fluoro-25(RS)-hydroxy-16,23E-diene-26-trifluoro-20-epi-cholecalciferol]
- Whole Femur BMD ([1]; 1.50 µg/kg once a day by mouth): 0.248 g/cm^2

SMILES: C=C1/C(=C\C=C2/CCC[C@]3(C)[C@@H](C4(CC#CC(O)(C(F)(F)F)C(F)(F)F)CC4)CC[C@@H]23)C[C@@H](O)C[C@@H]1F [Cpd. 61, 1-α-Fluoro-25-hydroxy-23-yne-26,27-hexafluoro-20,21,28-cyclopropyl-cholecalciferol]
- Whole Femur BMD ([1]; 0.50 µg/kg once a day by mouth): 0.243 g/cm^2
